The text below walks through data of PubChem BioAssay (NCI).

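Five concentrations, 48 hours, 96-well plates. GI50 = concentration required for 50% inhibition of growth. TGI denotes the concentration required for complete inhibition of growth.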

Some test systems named below: CCRF-CEM leukemia; HCT-116 colon; HOP-92 NSCLC; OVCAR-3 ovarian; RPMI-8226 leukemia; SF-295 CNS; SK-MEL-28 melanoma; SN12C renal; SR leukemia; SNB-75 CNS.
Common to all, as to assay: DTP human tumour cell line panel, 48 h

The term GI50 denotes the concentration at which growth is held to half of that of the control. A word on the TGI: it is the concentration at which net growth stops. The low end stands for greater sensitivity of the cells, the high end for lower sensitivity of the cells. As to `COc1ccc(C2C(C#N)=C(N)OC3=C2COc2ccc(F)cc23)cc1OC` (configuration not stated), the GI50 in the experiment on CCRF-CEM leukemia was 47.5 µM; with HCT-116 colon, 12 µM; in the experiment on HOP-92 NSCLC, 47.6 µM; with OVCAR-3 ovarian, 17.5 µM; with RPMI-8226 leukemia, 15.8 µM; with SF-295 CNS, 27.5 µM. In addition, the GI50 in the experiment with SK-MEL-28 melanoma is 51.8 µM; with SN12C renal it was 20.8 µM; in the experiment with SR leukemia, 9.09 µM. For the same compound, the TGI was over 100 µM with CCRF-CEM leukemia; 36.1 µM in the experiment on HCT-116 colon; over 100 µM in the experiment with HOP-92 NSCLC; 43.5 µM with OVCAR-3 ovarian; 52.6 µM in the experiment on RPMI-8226 leukemia; 67.5 µM with SF-295 CNS. The TGI with SK-MEL-28 melanoma is over 100 µM; in the experiment on SN12C renal it was 89.4 µM; with SR leukemia, over 100 µM.
With `O=C(O)Cc1c(O)ccc2ccccc12`, the TGI with HCT-116 colon, with HOP-92 NSCLC, with OVCAR-3 ovarian, with RPMI-8226 leukemia, with SF-295 CNS and with SK-MEL-28 melanoma was over 100 µM each time. Further, the TGI with SN12C renal, in the experiment on SNB-75 CNS and in the experiment on SR leukemia was over 100 µM each time.
Turning to `CCOC(=O)c1[nH]c(COC(C)=O)c(CCCOC(C)=O)c1CCCOC(C)=O`, the TGI with CCRF-CEM leukemia, in the experiment with HCT-116 colon, with HOP-92 NSCLC, with OVCAR-3 ovarian, in the experiment with SF-295 CNS and with SK-MEL-28 melanoma was over 100 µM each time. Further, the TGI in the experiment on SN12C renal and with SR leukemia was over 100 µM in each case.
For the compound `O=C(O)c1cccc(OCCO)c1`, the TGI in the experiment on HCT-116 colon, in the experiment on HOP-92 NSCLC, with OVCAR-3 ovarian, in the experiment with RPMI-8226 leukemia, in the experiment with SF-295 CNS and with SK-MEL-28 melanoma was over 100 µM in each case. Besides, the concentration for total growth inhibition (TGI) in the experiment with SN12C renal and in the experiment with SR leukemia was over 100 µM in each case.
In the case of `CC(=O)O[C@@H]1C[C@]2(C(C)C)O[C@@]1(C)[C@@H]1CCC(C)=C1[C@@H]2OC(=O)/C=C/c1ccccc1`, the GI50 in the experiment on CCRF-CEM leukemia was 31.3 µM; with HCT-116 colon, 16.4 µM; in the experiment on OVCAR-3 ovarian, 22.5 µM; with RPMI-8226 leukemia, 9.63 µM; with SF-295 CNS, 38.6 µM; with SK-MEL-28 melanoma, 69.9 µM. Besides, the GI50 in the experiment on SN12C renal was 10.4 µM; in the experiment with SNB-75 CNS, 27.9 µM; in the experiment on SR leukemia, 31.8 µM. Moreover, the TGI with CCRF-CEM leukemia was over 100 µM; in the experiment with HCT-116 colon, over 100 µM; in the experiment on OVCAR-3 ovarian, over 100 µM; in the experiment on RPMI-8226 leukemia it was 57.4 µM; with SF-295 CNS, over 100 µM; with SK-MEL-28 melanoma it was over 100 µM. For the same compound, the concentration for total growth inhibition (TGI) in the experiment on SN12C renal, in the experiment with SNB-75 CNS and in the experiment with SR leukemia was over 100 µM throughout.
In the case of `O=C(O)c1ccccc1-c1ccccc1C(=O)Nc1ccc2c(c1)Cc1cc(F)ccc1-2`, the TGI with HCT-116 colon was 33 µM; in the experiment with HOP-92 NSCLC, over 100 µM; in the experiment with OVCAR-3 ovarian, 45.6 µM; in the experiment on RPMI-8226 leukemia, 82.8 µM; in the experiment with SF-295 CNS, 94.2 µM; in the experiment on SK-MEL-28 melanoma, over 100 µM. In addition, the TGI with SN12C renal was 45.5 µM; with SNB-75 CNS it was over 100 µM; in the experiment with SR leukemia, 48.9 µM.
Take `Nc1ccncc1/C=C1/C(=O)Nc2ccccc21`: the GI50 in the experiment on CCRF-CEM leukemia is 68.3 µM; in the experiment on HCT-116 colon, 43.9 µM; in the experiment with OVCAR-3 ovarian it was 25.4 µM; in the experiment with RPMI-8226 leukemia it was over 100 µM; in the experiment on SF-295 CNS, 28.2 µM; in the experiment with SK-MEL-28 melanoma it was 28.9 µM. The GI50 is 18.3 µM in the experiment with SN12C renal, 18.5 µM in the experiment with SNB-75 CNS and 23.2 µM in the experiment on SR leukemia. The TGI was over 100 µM in the experiment with CCRF-CEM leukemia; over 100 µM in the experiment on HCT-116 colon; 76.3 µM in the experiment with OVCAR-3 ovarian; over 100 µM in the experiment with RPMI-8226 leukemia; 79 µM in the experiment with SF-295 CNS; over 100 µM with SK-MEL-28 melanoma. Moreover, the results for the TGI in the experiment on SN12C renal, with SNB-75 CNS and in the experiment on SR leukemia were over 100 µM, 63.2 µM and over 100 µM, respectively.
On to `CCN(CC)CCNCC(=O)Oc1ccc(/C=C/C(=O)CC(=O)/C=C/c2ccc(OC(=O)CNCCN(CC)CC)c(OC)c2)cc1OC`, for which the GI50 with HCT-116 colon is 2.81 µM; in the experiment with HOP-92 NSCLC, 3.93 µM; in the experiment on OVCAR-3 ovarian it was 4.11 µM; with RPMI-8226 leukemia, 1.91 µM; in the experiment with SF-295 CNS, 5.55 µM; in the experiment on SK-MEL-28 melanoma it was 4.16 µM. In addition, the GI50 in the experiment with SN12C renal is 3.32 µM; in the experiment on SNB-75 CNS it was 6.31 µM; in the experiment with SR leukemia, 3.14 µM. The TGI in the experiment with HCT-116 colon is 12.3 µM; in the experiment with HOP-92 NSCLC it was 33.1 µM; with OVCAR-3 ovarian, over 100 µM; with RPMI-8226 leukemia, 6.01 µM; with SF-295 CNS, 22.2 µM; in the experiment on SK-MEL-28 melanoma, 46.2 µM. Besides, the TGI in the experiment with SN12C renal is 79.6 µM; with SNB-75 CNS, 28.1 µM; with SR leukemia, over 100 µM.
For the compound `CCN1C(=O)N(CC)C2C1NC(=S)N2/N=C/C=C/c1cccs1` (configuration not stated), the GI50 was 0.396 µM in the experiment with CCRF-CEM leukemia; 0.404 µM with HCT-116 colon; 13.4 µM in the experiment on HOP-92 NSCLC; 0.241 µM in the experiment with OVCAR-3 ovarian; 0.413 µM with RPMI-8226 leukemia; 0.258 µM in the experiment on SF-295 CNS. The GI50 is 0.62 µM in the experiment on SN12C renal and 0.217 µM with SR leukemia. Also, the TGI is over 100 µM in the experiment on CCRF-CEM leukemia; over 100 µM in the experiment with HCT-116 colon; over 100 µM in the experiment on HOP-92 NSCLC; 0.715 µM in the experiment on OVCAR-3 ovarian; over 38.9 µM in the experiment on RPMI-8226 leukemia; over 100 µM with SF-295 CNS. The figures for the TGI in the experiment on SK-MEL-28 melanoma, in the experiment with SN12C renal and with SR leukemia were over 100 µM, over 100 µM and over 38.9 µM, respectively.
On to `CCCS(=O)(=O)Nc1ccc(Nc2c3ccccc3nc3ccccc23)c(OC)c1`, for which the TGI worked out at 0.499 µM in the experiment on CCRF-CEM leukemia; 13.2 µM in the experiment on HCT-116 colon; 17.5 µM in the experiment on HOP-92 NSCLC; 7.86 µM with OVCAR-3 ovarian; 8.31 µM in the experiment on SF-295 CNS; 1.3 µM with SK-MEL-28 melanoma. Further, the values for the TGI in the experiment with SN12C renal, in the experiment on SNB-75 CNS and with SR leukemia were 3.18 µM, 6.49 µM and 0.85 µM, respectively.
